Reference: US8178677B2, “Hydroxyalkyl substituted imidazoquinolines” (3M Innovative Properties Company, priority 2005, dated 2012)
Where a name gives a salt, the structure may show the parent alone. Read-outs that look alike come from different tables or passages of the source.

Key:
[1] = tested on: interferon (α) (IFN-α) induction in human peripheral blood mononuclear cells (PBMC); test: Cytokine induction in human cells (PBMC): IFN-α secreted into culture media, ELISA; format: cell-based; conditions: read-out: Minimum Effective Concentration (μM) IFN
Description: (§1) Cytokine Induction in Human Cells
(§2) An in vitro human blood cell system is used to assess cytokine induction. Activity is based on the measurement of interferon (α) and tumor necrosis factor (α) (IFN-α and TNF-α, respectively) secreted into culture media as described by Testerman et. al. in “Cytokine Induction by the Immunomodulators Imiquimod and S-27609”, Journal of Leukocyte Biology, 58, 365-372 (September, 1995).
(§3) Blood Cell Preparation for Culture
(§4) Whole blood from healthy human donors is collected by venipuncture into vacutainer tubes or syringes containing EDTA. Peripheral blood mononuclear cells (PBMC) are separated from whole blood by density gradient centrifugation using HISTOPAQUE-1077 (Sigma, St. Louis, Mo.) or Ficoll-Paque Plus (Amersham Biosciences Piscataway, N.J.). Blood is diluted 1:1 with Dulbecco's Phosphate Buffered Saline (DPBS) or Hank's Balanced Salts Solution (HBSS). Alternately, whole blood is placed in Accuspin (Sigma) or LeucoSep (Greiner Bio-One, Inc., Longwood, Fla.) centrifuge frit tubes containing density gradient medium. The PBMC layer is collected and washed twice with DPBS or HBSS and re-suspended at 4×10^6 cells/mL in RPMI complete. The PBMC suspension is added to 96 well flat bottom sterile tissue culture plates containing an equal volume of RPMI complete media containing test compound.
(§5) The compounds are solubilized in dimethyl sulfoxide (DMSO). The DMSO concentration should not exceed a final concentration of 1% for addition to the culture wells. The compounds are generally tested at concentrations ranging from 30-0.014 μM. Controls include cell samples with media only, cell samples with DMSO only (no compound), and cell samples with reference compound.
(§6) The solution of test compound is added at 60 μM to the first well containing RPMI complete and serial 3 fold dilutions are made in the wells. The PBMC suspension is then added to the wells in an equal volume, bringing the test compound concentrations to the desired range (usually 30-0.014 μM). The final concentration of PBMC suspension is 2×10^6 cells/mL. The plates are covered with sterile plastic lids, mixed gently and then incubated for 18 to 24 hours at 37° C. in a 5% carbon dioxide atmosphere.
(§7) Following incubation the plates are centrifuged for 10 minutes at 1000 rpm (approximately 200×g) at 4° C. The cell-free culture supernatant is removed and transferred to sterile polypropylene tubes. Samples are maintained at −30 to −70° C. until analysis. The samples are analyzed for IFN-α by ELISA and for TNF-α by IGEN/BioVeris Assay.
(§8) Interferon (α) and Tumor Necrosis Factor (α) Analysis
IFN-α concentration is determined with a human multi-subtype calorimetric sandwich ELISA (Catalog Number 41105) from PBL Biomedical Laboratories, Piscataway, N.J. Results are expressed in pg/mL.
(§9) In total, the data output of the assay consists of concentration values of TNF-α and IFN-α (y-axis) as a function of compound concentration (x-axis).
Analysis of the data has two steps. First, the greater of the mean DMSO (DMSO control wells) or the experimental background (usually 20 pg/mL for IFN-α and 40 pg/mL for TNF-α) is subtracted from each reading. If any negative values result from background subtraction, the reading is reported as “*”, and is noted as not reliably detectable. In subsequent calculations and statistics, “*”, is treated as a zero. Second, all background subtracted values are multiplied by a single adjustment ratio to decrease experiment to experiment variability. The adjustment ratio is the area of the reference compound in the new experiment divided by the expected area of the reference compound based on the past 61 experiments (unadjusted readings). […] The reference compound used is 2-[4-amino-2-ethoxymethyl-6,7,8,9-tetrahydro-α,α-dimethyl-1H-imidazo[4,5-c]quinolin-1-yl]ethanol hydrate (U.S. Pat. No. 5,352,784; Example 91) and the expected area is the sum of the median dose values from the past 61 experiments. […]

[2] = tested on: tumor necrosis factor (α) (TNF-α) induction in human peripheral blood mononuclear cells (PBMC); test: Cytokine induction in human cells (PBMC): TNF-α secreted into culture media, ORIGEN M-Series immunoassay; format: cell-based; conditions: for Maximal Response (pg/mL) TNF: background-subtracted; for minimal effective concentration: Homo sapiens, PBMC, read-out: Minimum Effective Concentration (μM) TNF
Description: as §1, §2, §3, §4, §5, §6, §7, §8
The TNF-α concentration is determined by ORIGEN M-Series Immunoassay and read on an IGEN M-8 analyzer from BioVeris Corporation, formerly known as IGEN International, Gaithersburg, Md. The immunoassay uses a human TNF-α capture and detection antibody pair (Catalog Numbers AHC3419 and AHC3712) from Biosource International, Camarillo, Calif. Results are expressed in pg/mL.
as §9
Analysis of the data has two steps. First, the greater of the mean DMSO (DMSO control wells) or the experimental background (usually 20 pg/mL for IFN-α and 40 pg/mL for TNF-α) is subtracted from each reading. If any negative values result from background subtraction, the reading is reported as “*”, and is noted as not reliably detectable. In subsequent calculations and statistics, “*”, is treated as a zero. Second, all background subtracted values are multiplied by a single adjustment ratio to decrease experiment to experiment variability. The adjustment ratio is the area of the reference compound in the new experiment divided by the expected area of the reference compound based on the past 61 experiments (unadjusted readings). […]

[3] = 18 to 24 hours incubation, tested 30-0.014 μM, lowest concentration inducing response over 20 pg/mL IFN-α, median of # experiments
[4] = lowest tested concentration inducing IFN-α over 20 pg/mL, median where more than one experiment
[5] = 18 to 24 hours incubation, tested 30-0.014 μM, lowest concentration inducing response over 40 pg/mL TNF-α, median of # experiments
[6] = lowest tested concentration inducing TNF-α over 40 pg/mL, median where more than one experiment
[7] = maximal response in dose response curve, reference-adjusted, median where more than one experiment, * = below background of 40 pg/mL

melting point [°C] | SMILES | minimal effective concentration [1, 3] [µM] | minimal effective concentration [1, 4] [µM] | Maximal Response (pg/mL) TNF ([2]; 18 to 24 hours incubation, reference-adjusted maximal response of dose response curve, median of # experiments) | minimal effective concentration [2, 5] [µM] | minimal effective concentration [2, 6] [µM] | Maximal Response (pg/mL) TNF [2, 7]
209 to 212 | CC(C)(Cn1c(CCO)nc2c(N)nc3ccccc3c21)NS(C)(=O)=O [Example 6, N-{2-[4-Amino-2-(2-hydroxyethyl)-1H-imidazo[4,5-c]quinolin-1-yl]-1,1-dimethylethyl}methanesulfonamide] | 1.11 | 1.11 | * (TNF below experimental background of 40 pg/mL.) | > 30 | 30 | * (TNF below experimental background of 40 pg/mL.)
– | CCOCc1nc2c(N)nc3ccccc3c2n1CC(C)(C)NS(C)(=O)=O [Analog 4, N-[2-(4-Amino-2-ethoxymethyl-1H-imidazo[4,5-c]quinolin-1-yl)-1,1-dimethylethyl]methanesulfonamide, reference compound] | 0.04 | 0.04 | – | 0.37 | 0.37 | –
262 to 265 | CC(C)(Cn1c(CO)nc2c(N)nc3ccccc3c21)NS(C)(=O)=O [Example 7, N-[2-(4-Amino-2-hydroxymethyl-1H-imidazo[4,5-c]quinolin-1-yl)-1,1-dimethylethyl]methanesulfonamide] | 3.33 | 3.33 | – | 30 | 30 | –
248 to 250 | CC(C)(Cn1c(CO)nc2c(N)nc3ccccc3c21)NC(=O)C1CCCCC1 [Example 5, N-[2-(4-Amino-2-hydroxymethyl-1H-imidazo[4,5-c]quinolin-1-yl)-1,1-dimethylethyl]cyclohexanecarboxamide] | – | 0.37 | – | – | 10 | –
231 to 232 | Cc1ccc(S(=O)(=O)NCCCn2c(CCO)nc3c(N)nc4ccccc4c32)cc1 [Example 1, N-{3-[4-Amino-2-(2-hydroxyethyl)-1H-imidazo[4,5-c]quinolin-1-yl]propyl}-4-methylbenzenesulfonamide] | – | 0.37 | – | – | 10 | –
> 240 | CC(C)NC(=O)NCCn1c(CO)nc2c(N)nc3ccccc3c21 [Example 144, N-{2-[4-amino-2-(hydroxymethyl)-1H-imidazo[4,5-c]quinolin-1-yl]ethyl}-N′-isopropylurea] | – | 0.37 | – | – | 3.33 | –
196 to 199 | CC(C)NC(=O)NC(C)(C)Cn1c(CO)nc2c(N)nc3ccccc3c21 [Example 142, 1-[2-(4-Amino-2-hydroxymethyl-1H-imidazo[4,5-c]quinolin-1-yl)-1,1-dimethylethyl]-3-(1-methylethyl)urea] | – | 1.11 | – | – | > 30 | * (TNF below experimental background of 40 pg/mL.)
– | COCCc1nc2c(N)nc3ccccc3c2n1CC(C)(C)NS(C)(=O)=O [Analog 5, N-{2-[4-Amino-2-(2-methoxyethyl)-1H-imidazo[4,5-c]quinolin-1-yl]-1,1-dimethylethyl}methanesulfonamide, reference compound] | 0.014 | 0.014 | – | 0.12 | 0.12 | –
– | CCCc1nc2c(N)nc3ccccc3c2n1CC(C)(C)NS(C)(=O)=O [Analog 3, N-[2-(4-Amino-2-propyl-1H-imidazo[4,5-c]quinolin-1-yl)-1,1-dimethylethyl]methanesulfonamide, reference compound] | 0.12 | 0.12 | – | 0.37 | 0.37 | –
161 to 163 | CC(C)[C@H](N)C(=O)OCc1nc2c(N)nc3ccccc3c2n1CCCCNS(C)(=O)=O [Example 149, (4-Amino-1-{4-[(methylsulfonyl)amino]butyl}-1H-imidazo[4,5-c]quinolin-2-yl)methyl L-valinate] | – | – | – | – | – | –
183 to 186 | Nc1nc2ccccc2c2c1nc(CO)n2CCCCNC(=O)C1CCCC1 [Example 145, N-{4-[4-amino-2-(hydroxymethyl)-1H-imidazo[4,5-c]quinolin-1-yl]butyl}cyclopentanecarboxamide] | – | – | – | – | – | –
– | CCc1nc2c(N)nc3ccccc3c2n1CC(C)(C)NS(C)(=O)=O [Analog 2, N-[2-(4-Amino-2-ethyl-1H-imidazo[4,5-c]quinolin-1-yl)-1,1-dimethylethyl]methanesulfonamide, reference compound] | 0.12 | 0.12 | – | 1.11 | 1.11 | –
222 to 224 | CC(C)C(=O)NCCCCn1c(CO)nc2c(N)nc3ccccc3c21 (as salt: salt) [Example 146, N-[4-(4-amino-2-hydroxymethyl-1H-imidazo[4,5-c]quinolin-1-yl)butyl]isobutyramide] | – | – | – | – | – | –
239 to 241 | Nc1nc2ccccc2c2c1nc(CO)n2CC1CCOCC1 [Example 150, [4-Amino-1-(tetrahydro-2H-pyran-4-ylmethyl)-1H-imidazo[4,5-c]quinolin-2-yl]methanol] | – | – | – | – | – | –
99 to 100 | CC(C)[C@H](NC(=O)OCc1ccccc1)C(=O)OCc1nc2c(N)nc3ccccc3c2n1CCCCNS(C)(=O)=O [Example 148, (4-Amino-1-{4-[(methylsulfonyl)amino]butyl}-1H-imidazo[4,5-c]quinolin-2-yl)methyl N-[(benzyloxy)carbonyl]-L-valinate] | – | – | – | – | – | –
– | Cc1nc2c(N)nc3ccccc3c2n1CC(C)(C)NS(C)(=O)=O [Analog 1, N-[2-(4-Amino-2-methyl-1H-imidazo[4,5-c]quinolin-1-yl)-1,1-dimethylethyl]methanesulfonamide, reference compound] | 0.37 | 0.37 | – | 3.33 | 3.33 | –
